Results published in US11267812B2 (Mirati Therapeutics, Inc., priority 2016, dated 2022).
Read-outs that look alike come from different tables or passages of the source.

Assays:
KRas G12C = KRas G12C (Homo sapiens, UniProt P01116, C118S/C51S/C80L/G12C); test: KRas G12C Modification Assay (LCMS detection of covalent adduct); type: binding; conditions: 5 μM compound, 3 hours
Experimental: A 10 μL aliquot of each protein solution was then transferred to a 384 well microtiter plate. Initial compound stocks were generated at fifty times their desired final assay concentration in DMSO.
Exemplary compounds of Formula (I) were diluted 25-fold into K-Ras Assay Buffer to a final of two times their final concentration. A 10 μL aliquot of each diluted compound solution was then added to each of the protein solutions in the microtiter plate to initiate reaction. […] At each time point, the reactions were quenched with 20 μL of a 25 mM acetic acid solution. […] Once all reactions were quenched, the plates were heat sealed and the samples were injected into a LC/MS system for data acquisition.
Samples were injected in their liquid phase onto a C-3 reverse phase column to remove assay buffer and prepare the samples for mass spectrometer. The proteins were eluted from the column using an acetonitrile gradient and fed directly into the mass analyzer. Initial raw data analysis took place in Agilent MassHunter software immediately post data acquisition.
Raw data analysis of the intact protein was exclusively a deconvolution of the multiple charge states of each protein in solution using a maximum entropy deconvolution provided in Mass Hunter. To minimize complexity, only the data over limited mass ranges were considered for analysis, with a minimum of one Dalton mass step intervals. The heights of all masses identified during raw data analysis were exported to be further analyzed in Spotfire® data analysis software.
Final data analysis was a multistep process in the Spotfire® data analysis software package. Briefly, each protein mass was calculated as a percent of the total signal of that sample, that percentage was then normalized to the percentage of signal of the protein in the absence of reactive compounds. Those normalized signals were reported as normalized percent of control (POC). […] Key: “A”≤25% POC; “B”>25% POC≤50% POC; “C”>50% POC and ND=not determined.

[1] = tested on: Phospho-ERK in NCI-H358 cells expressing KRas G12C; test: Cellular inhibition of KRas G12C by Phospho-ERK measurement in NCI-H358 cells; type: cell-based; conditions: Homo sapiens, read-out: IC50 (pERK(Thr202/Tyr204) normalized with GAPDH)
Outline: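 After 8–12 h attachment, NCI-H358 cells were treated with compounds for 3 h (0.5% DMSO final), fixed, methanol-permeabilized and immunostained. pERK(Thr202/Tyr204) was read by infrared imaging and normalized to GAPDH as percent of DMSO control. IC50 came from a 4-parameter fit.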

[2] = NCI-H358 cells, 3 hours compound treatment

C=CC(=O)N1CCN(c2nc(OC[C@@H]3CCCN3CC3CC3)nc3c2CCN(c2cccc4ccccc24)C3)CC1CC#N (stereo partly drawn) [Example 257, 2-(1-acryloyl-4-(2-(((S)-1-(cyclopropylmethyl)pyrrolidin-2-yl)methoxy)-7-(naphthalen-1-yl)-5,6,7,8-tetrahydropyrido[3,4-d]pyrimidin-4-yl)piperazin-2-yl)acetonitrile]
POC (normalized percent of control, KRas G12C modification) (KRas G12C): C (“C”>50% POC) | IC50 [1, 2]: 0.001 to 1 µM

C=CC(=O)N1CCN(c2nc(OC[C@@H]3CCCN3C)nc3c2CCN(c2c(C(F)(F)F)ccc4[nH]ncc24)C3)CC1CC#N (stereo partly drawn) [Example 149, 2-[4-[2-[[(2S)-1-methylpyrrolidin-2-yl]methoxy]-7-[5-(trifluoromethyl)-1H-indazol-4-yl]-6,8-dihydro-5H-pyrido[3,4-d]pyrimidin-4-yl]-1-prop-2-enoyl-piperazin-2-yl]acetonitrile]
POC (normalized percent of control, KRas G12C modification) (KRas G12C): B (“B”>25% POC≤50% POC) | IC50 [1, 2]: 0.001 to 1 µM

C=CC(=O)N1CCN(c2nc(OCCCO)nc3c2CCN(c2cccc4ccccc24)C3)CC1CC#N (stereo not drawn) [Example 231, 2-(1-acryloyl-4-(2-(3-hydroxypropoxy)-7-(naphthalen-1-yl)-5,6,7,8-tetrahydropyrido[3,4-d]pyrimidin-4-yl)piperazin-2-yl)acetonitrile]
POC (normalized percent of control, KRas G12C modification) (KRas G12C): C (“C”>50% POC) | IC50 [1, 2]: 0.001 to 1 µM

C=CC(=O)N1CCN(c2nc(OC[C@@H]3CCCN3C)nc3c2CCN(c2c(C)ccc4[nH]ncc24)C3)CC1CC#N (stereo partly drawn) [Example 148, 2-[4-[7-(5-methyl-1H-indazol-4-yl)-2-[[(2S)-1-methylpyrrolidin-2-yl]methoxy]-6,8-dihydro-5H-pyrido[3,4-d]pyrimidin-4-yl]-1-prop-2-enoyl-piperazin-2-yl]acetonitrile]
POC (normalized percent of control, KRas G12C modification) (KRas G12C): C (“C”>50% POC) | IC50 [1, 2]: 0.001 to 1 µM

C=CC(=O)N1CCN(c2nc(OC[C@@H]3CCCN3C)nc3c2CCN(c2cccc4ccc(C)cc24)C3)CC1CC#N (stereo partly drawn) [Example 245, 2-[4-[7-(7-methyl-1-naphthyl)-2-[[(2S)-1-methylpyrrolidin-2-yl]methoxy]-6,8-dihydro-5H-pyrido[3,4-d]pyrimidin-4-yl]-1-prop-2-enoyl-piperazin-2-yl]acetonitrile]
POC (normalized percent of control, KRas G12C modification) (KRas G12C): C (“C”>50% POC) | IC50 [1, 2]: 0.001 to 1 µM

C=CC(=O)N1CCN(c2nc(OC[C@@H]3CCCN3C)nc3c2CCN(c2c(C)ccc4[nH]ncc24)C3)CC1 [Example 155, (S)-1-(4-(7-(5-methyl-1H-indazol-4-yl)-2-((1-methylpyrrolidin-2-yl)methoxy)-5,6,7,8-tetrahydropyrido[3,4-d]pyrimidin-4-yl)piperazin-1-yl)prop-2-en-1-one]
POC (normalized percent of control, KRas G12C modification) (KRas G12C): C (“C”>50% POC) | IC50 [1, 2]: 0.001 to 1 µM

C=CC(=O)N1CCN(c2nc(OC[C@H]3CCCN3C)nc3c2CCN(c2cccc4ccccc24)C3)C[C@@H]1CC#N [Example 267, 2-((S)-1-acryloyl-4-(2-(((R)-1-methylpyrrolidin-2-yl)methoxy)-7-(naphthalen-1-yl)-5,6,7,8-tetrahydropyrido[3,4-d]pyrimidin-4-yl)piperazin-2-yl)acetonitrile]
POC (normalized percent of control, KRas G12C modification) (KRas G12C): C (“C”>50% POC) | IC50 ([1]; NCI-H358, 3 h): 0.001 to 1 µM

C=CC(=O)N1CCN(c2nc(OC[C@@H]3CCN(C)C3)nc3c2CCN(c2cccc4ccccc24)C3)CC1CC#N (stereo partly drawn) [Example 177, 2-[4-[2-[[(3R)-1-methylpyrrolidin-3-yl]methoxy]-7-(1-naphthyl)-6,8-dihydro-5H-pyrido[3,4-d]pyrimidin-4-yl]-1-prop-2-enoyl-piperazin-2-yl]acetonitrile]
POC (normalized percent of control, KRas G12C modification) (KRas G12C): C (“C”>50% POC) | IC50 [1, 2]: 0.001 to 1 µM

C=CC(=O)N1CCN(c2nc(OCCCN3CC4CC4C3)nc3c2CCN(c2cc(O)cc4ccccc24)C3)CC1 (stereo not drawn) [Example 206, 1-(4-(2-(3-(3-azabicyclo[3.1.0]hexan-3-yl)propoxy)-7-(3-hydroxynaphthalen-1-yl)-5,6,7,8-tetrahydropyrido[3,4-d]pyrimidin-4-yl)piperazin-1-yl)prop-2-en-1-one]
POC (normalized percent of control, KRas G12C modification) (KRas G12C): C (“C”>50% POC) | IC50 [1, 2]: 0.001 to 1 µM

C=CC(=O)N1CCN(c2nc(OC[C@@H]3CCCN3C)nc3c2CCN(c2c(F)c(O)cc4ccccc24)C3)CC1 [Example 249, 1-[4-[7-(2-fluoro-3-hydroxy-1-naphthyl)-2-[[(2S)-1-methylpyrrolidin-2-yl]methoxy]-6,8-dihydro-5H-pyrido[3,4-d]pyrimidin-4-yl]piperazin-1-yl]prop-2-en-1-one]
POC (normalized percent of control, KRas G12C modification) (KRas G12C): C (“C”>50% POC) | IC50 [1, 2]: 0.001 to 1 µM

C=CC(=O)N1CCN(c2nc(OCCN(C)C)nc3c2CCN(c2cc(O)cc4ccccc24)C3)CC1CCO (stereo not drawn) [Example 171, 1-(4-(2-(2-(dimethylamino)ethoxy)-7-(3-hydroxynaphthalen-1-yl)-5,6,7,8-tetrahydropyrido[3,4-d]pyrimidin-4-yl)-2-(2-hydroxyethyl)piperazin-1-yl)prop-2-en-1-one]
POC (normalized percent of control, KRas G12C modification) (KRas G12C): C (“C”>50% POC)

C=CC(=O)N1CCN(c2nc(OCCN(C)C)nc3c2CCN(c2cc(O)cc4ccccc24)C3)CC1CC#N (stereo not drawn) [Example 170, 2-(1-acryloyl-4-(2-(2-(dimethylamino)ethoxy)-7-(3-hydroxynaphthalen-1-yl)-5,6,7,8-tetrahydropyrido[3,4-d]pyrimidin-4-yl)piperazin-2-yl)acetonitrile]
POC (normalized percent of control, KRas G12C modification) (KRas G12C): C (“C”>50% POC) | IC50 [1, 2]: 0.001 to 1 µM

C=CC(=O)N1CCN(c2nc(OC[C@@H]3CCCN3C)nc3c2CCN(c2ccccc2C(F)(F)F)C3)CC1CC#N (stereo partly drawn) [Example 210, 2-(1-acryloyl-4-(2-(((S)-1-methylpyrrolidin-2-yl)methoxy)-7-(2-(trifluoromethyl)phenyl)-5,6,7,8-tetrahydropyrido[3,4-d]pyrimidin-4-yl)piperazin-2-yl)acetonitrile]
POC (normalized percent of control, KRas G12C modification) (KRas G12C): C (“C”>50% POC) | IC50 [1, 2]: 0.001 to 1 µM

C=CC(=O)N1CCN(c2nc(OCCCN3CCOCC3)nc3c2CCN(c2c(F)c(O)cc4ccccc24)C3)CC1 [Example 165, 1-[4-[7-(2-fluoro-3-hydroxy-1-naphthyl)-2-(3-morpholinopropoxy)-6,8-dihydro-5H-pyrido[3,4-d]pyrimidin-4-yl]piperazin-1-yl]prop-2-en-1-one]
POC (normalized percent of control, KRas G12C modification) (KRas G12C): C (“C”>50% POC)

C=CC(=O)N1CCN(c2nc(OC[C@@H]3CCCN3C)nc3c2CCN(c2c(C(C)C)ccc4[nH]ncc24)C3)CC1 [Example 248, (S)-1-(4-(7-(5-isopropyl-1H-indazol-4-yl)-2-((1-methylpyrrolidin-2-yl)methoxy)-5,6,7,8-tetrahydropyrido[3,4-d]pyrimidin-4-yl)piperazin-1-yl)prop-2-en-1-one]
POC (normalized percent of control, KRas G12C modification) (KRas G12C): C (“C”>50% POC)

C=CC(=O)N1CCN(c2nc(O[C@H](C)CN(C)CC)nc3c2CCN(c2cc(O)cc4ccccc24)C3)CC1 [Example 131, 1-[4-[2-[(1R)-2-[ethyl(methyl)amino]-1-methyl-ethoxy]-7-(3-hydroxy-1-naphthyl)-6,8-dihydro-5H-pyrido[3,4-d]pyrimidin-4-yl]piperazin-1-yl]prop-2-en-1-one]
POC (normalized percent of control, KRas G12C modification) (KRas G12C): C (“C”>50% POC) | IC50 [1, 2]: 0.001 to 1 µM

C=CC(=O)N1CCN(c2nc(OCCCN3C[C@@H](F)[C@@H](F)C3)nc3c2CCN(c2cc(O)cc4ccccc24)C3)CC1 [Example 208, 1-(4-(2-(3-((3R,4S)-3,4-difluoropyrrolidin-1-yl)propoxy)-7-(3-hydroxynaphthalen-1-yl)-5,6,7,8-tetrahydropyrido[3,4-d]pyrimidin-4-yl)piperazin-1-yl)prop-2-en-1-one]
POC (normalized percent of control, KRas G12C modification) (KRas G12C): C (“C”>50% POC)

CC#CC(=O)N1CCN(c2nc(OC[C@@H]3CCCN3C)nc3c2CCN(c2cccc4ccccc24)C3)CC1CC#N (stereo partly drawn) [Example 242, 2-(1-(but-2-ynoyl)-4-(2-(((S)-1-methylpyrrolidin-2-yl)methoxy)-7-(naphthalen-1-yl)-5,6,7,8-tetrahydropyrido[3,4-d]pyrimidin-4-yl)piperazin-2-yl)acetonitrile]
POC (normalized percent of control, KRas G12C modification) (KRas G12C): C (“C”>50% POC) | IC50 ([1]; NCI-H358, 3 h): 0.001 to 1 µM

C=CC(=O)N1CCN(c2nc(OCCN3CCC[C@@H](F)C3)nc3c2CCN(c2cc(O)cc4ccccc24)C3)CC1 [Example 207, (R)-1-(4-(2-(2-(3-fluoropiperidin-1-yl)ethoxy)-7-(3-hydroxynaphthalen-1-yl)-5,6,7,8-tetrahydropyrido[3,4-d]pyrimidin-4-yl)piperazin-1-yl)prop-2-en-1-one]
POC (normalized percent of control, KRas G12C modification) (KRas G12C): C (“C”>50% POC)
